Test results: patent EP4603105A1, “PHARMACEUTICAL COMPOSITION CONTAINING CYCLIC COMPOUND HAVING SELECTIVE KRAS INHIBITORY EFFECT AGAINST HRAS AND NRAS” (CHUGAI SEIYAKU KABUSHIKI KAISHA, priority 2022, dated 2024)
pIC50, pKd: −log10 of the molar value. Where a SMILES comes first, the peptide text is derived from it. Bridges are numbered along the chain shown (N, C = ends). [ ]: non-standard residue; d: D form. The star is where a group is joined. hPhe(3-Cl-4-CF3) = N[C@@H](CCc1ccc(C(F)(F)F)c(Cl)c1)C(=O)O; NPrPhe(4-CF3) = CCCN[C@@H](Cc1ccc(C(F)(F)F)cc1)C(=O)O; NMeGly(cPent) = CN[C@H](C(=O)O)C1CCCC1; Pro(4,4-F2) = O=C(O)[C@@H]1CC(F)(F)CN1; NMeD = CN[C@@H](CC(=O)O)C(=O)O; NMeL = CN[C@@H](CC(C)C)C(=O)O; NMeNva = CCC[C@H](NC)C(=O)O; Morpholide = C1CN(*)CCO1; Ac5c = NC1(C(=O)O)CCCC1; Aze = O=C(O)[C@@H]1CCN1; Abu = CC[C@H](N)C(=O)O; Ac4c = NC1(C(=O)O)CCC1; NPrGly = CCCNCC(=O)O; Sar = CNCC(=O)O

What was measured:
[1] = target: GDP-bound KRAS wild-type protein (Homo sapiens, UniProt P01116); test: Binding to KRAS by surface plasmon resonance (SPR), dissociation constant KD
Chain of GDP-bound KRAS wild-type protein (P01116 1-188 isoform P01116-2): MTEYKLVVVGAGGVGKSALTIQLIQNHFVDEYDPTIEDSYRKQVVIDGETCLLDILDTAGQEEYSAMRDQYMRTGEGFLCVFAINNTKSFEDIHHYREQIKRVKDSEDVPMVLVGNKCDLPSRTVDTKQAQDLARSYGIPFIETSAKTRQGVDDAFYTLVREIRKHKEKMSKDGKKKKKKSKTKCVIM
Outline: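 SPR, 30°C: Avi-biotin RAS·GDP captured via Biotin CAPture (~100–300 RU); running buffer HBS pH 7.4, 1 mM DTT, 10 mM MgCl2, 0.01% Tween 20, 10 µM GDP, 4% DMSO. Single-cycle kinetics, 100 µL/min, 75 s injections; 1:1 model → KD.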

[2] = target: GDP-bound NRAS wild-type protein (Homo sapiens, UniProt P01111); test: Binding to NRAS by surface plasmon resonance (SPR), KD and KD ratio to KRAS
Chain of GDP-bound NRAS wild-type protein (P01111 whole entry): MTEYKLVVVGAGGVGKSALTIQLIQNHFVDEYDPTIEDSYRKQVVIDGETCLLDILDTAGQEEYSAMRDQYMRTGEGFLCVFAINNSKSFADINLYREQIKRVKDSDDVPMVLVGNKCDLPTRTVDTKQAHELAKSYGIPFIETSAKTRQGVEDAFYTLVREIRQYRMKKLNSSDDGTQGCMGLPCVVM
Outline: (§1)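 Biotinylated GDP-bound RAS was captured at about 100–300 RU. Running buffer: HBS pH 7.4, 10 mM MgCl2, 10 µM GDP, 1 mM DTT, 0.01% Tween 20, 4% DMSO.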

[3] = target: HRAS wild-type protein (Homo sapiens, UniProt P01112); test: Binding to HRAS by surface plasmon resonance (SPR), KD and KD ratio to KRAS
Chain of HRAS wild-type protein (P01112 whole entry): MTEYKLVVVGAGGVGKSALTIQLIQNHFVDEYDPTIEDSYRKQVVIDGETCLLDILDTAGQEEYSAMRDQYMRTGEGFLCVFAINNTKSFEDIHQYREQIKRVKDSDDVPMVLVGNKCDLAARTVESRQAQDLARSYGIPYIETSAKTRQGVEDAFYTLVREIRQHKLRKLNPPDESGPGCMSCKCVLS
Outline: as §1

[4] = tested on: human lung cancer strain NCI-H441; type: cell-based
Outline: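 Step one: dispense the test compound in serial DMSO dilutions. Step three: add the reagent and measure […].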

[5] = ratio of KD for GDP-bound NRAS wild-type protein to KD for KRAS
[6] = ratio of KD for HRAS wild-type protein to KD for KRAS

Row | SMILES | pKd ([1]; 1:1 binding model) | NRAS /KRAS [2, 5] | HRAS /KRAS [3, 6] | pIC50 [4] | pKd ([1]; Single Cycle Kinetics) | pKd ([1]; Single Cycle Kinetics, 1:1 binding model) | NRAS /KRAS ([2]; ratio of the KD value with respect to GDP-bound NRAS wild-type protein to the KD value with respect to KRAS) | HRAS /KRAS ([3]; ratio of the KD value with respect to HRAS wild-type protein to the KD value with respect to KRAS)
1 | CCCN1C(=O)CN(C)C(=O)[C@@H]2CCN2C(=O)[C@H]([C@@H](C)CC)NC(=O)[C@H](CC(C)C)N(C)C(=O)C[C@@H](C(=O)N2CCOCC2)NC(=O)[C@H](C2CCCC2)N(C)C(=O)C2(CCC2)NC(=O)[C@@H]2CC(F)(F)CN2C(=O)[C@H](CCc2ccc(C(F)(F)F)c(Cl)c2)NC(=O)CN(C)C(=O)[C@@H]1Cc1ccc(C(F)(F)F)cc1 [PP0340] ([NMeL]I[Aze][Sar][NPrPhe(4-CF3)][Sar][hPhe(3-Cl-4-CF3)][Pro(4,4-F2)][Ac4c][NMeGly(cPent)]D-Morpholide; lactam N-11) | 8.43 | B (a compound having 3 or more and less than 10 is denoted as B) | B (a compound having 3 or more and less than 10 is denoted as B) | 6.75 |  |  |  | 
2 | CCC(CC)[C@H]1C(=O)N(C)[C@H](C(=O)N(C)C)CC(=O)N(C)[C@@H](COC)C(=O)N[C@@H]([C@@H](C)CC)C(=O)N(C)CC(=O)N(C)[C@H]2C/C=C\CCN(C2=O)[C@@H](Cc2ccc(C)cc2)C(=O)N(C)CC(=O)N[C@@H](CCc2ccc(C(F)(F)F)c(OC)c2)C(=O)N2CCCC[C@H]2C(=O)NC2(CC(C)(C)C2)C(=O)N1C [PP2937] | 8.96 | A (a compound having 10 or more and less than 20 is denoted as A) | A (a compound having 10 or more and less than 20 is denoted as A) | 6.86 |  |  |  | 
3 | CCCC[C@H]1C(=O)N[C@@H]([C@@H](C)CC)C(=O)N(C)CC(=O)N(C)[C@H]2C/C=C\CCN(C2=O)[C@@H](Cc2ccc(C(F)(F)F)cc2)C(=O)N(C)CC(=O)N[C@@H](CCc2ccc(C(F)(F)F)c(Cl)c2)C(=O)N2C[C@H](OCC)C[C@H]2C(=O)NC2(CCC2)C(=O)N(C)[C@@H](C2CCCC2)C(=O)N(C)[C@H](C(=O)N(C)CC)CC(=O)N1C [PP2841] | 10.07 | A (a compound having 10 or more and less than 20 is denoted as A) | A (a compound having 10 or more and less than 20 is denoted as A) | 8.08 |  |  |  | 
4 | CCCN1C(=O)CN(C)C(=O)[C@@H]2CCN2C(=O)[C@H](CC)NC(=O)[C@H](CC(C)C)N(C)C(=O)C[C@@H](C(=O)N2CCOCC2)N(C)C(=O)[C@H](C2CCCC2)N(C)C(=O)C2(CCCC2)NC(=O)[C@@H]2CCCN2C(=O)[C@H](CCc2ccc(C(F)(F)F)c(Cl)c2)NC(=O)CN(C)C(=O)[C@@H]1Cc1ccc(C(F)(F)F)cc1 [PP0303] ([NMeL][Abu][Aze][Sar][NPrPhe(4-CF3)][Sar][hPhe(3-Cl-4-CF3)]P[Ac5c][NMeGly(cPent)][NMeD]-Morpholide; lactam N-11) | 8.40 | B (a compound having 3 or more and less than 10 is denoted as B) | B (a compound having 3 or more and less than 10 is denoted as B) | 6.46 |  |  |  | 
5 | CCO[C@@H]1C[C@H]2C(=O)NC3(CCC3)C(=O)N(C)[C@@H](C3CCCC3)C(=O)N(C)[C@H](C(=O)N3CCOCC3)CC(=O)N(C)[C@@H](COCC(F)(F)F)C(=O)N[C@@H]([C@@H](C)CC)C(=O)N(C)CC(=O)N(C)[C@H]3CCCCCN(C3=O)[C@@H](Cc3ccc(C(F)(F)F)cc3)C(=O)N(C)CC(=O)N[C@@H](CCc3cc(F)c(C(F)(F)F)c(F)c3)C(=O)N2C1 [PP0853] |  | B (a compound having 3 or more and less than 10 is denoted as B) | B (a compound having 3 or more and less than 10 is denoted as B) | 7.61 | 9.17 |  |  | 
6 | CCC[C@H]1C(=O)N[C@@H]([C@@H](C)CC)C(=O)N(C)CC(=O)N(CCC)CC(=O)N(CCC)[C@@H](Cc2ccc(C(F)(F)F)cc2)C(=O)N(C)CC(=O)N[C@@H](CCc2ccc(C(F)(F)F)c(Cl)c2)C(=O)N2CCC[C@H]2C(=O)NC2(CCC2)C(=O)N(C)[C@@H](C2CCCC2)C(=O)N(C)[C@H](C(=O)N2CCOCC2)CC(=O)N1C [PP1949] ([NMeNva]I[Sar][NPrGly][NPrPhe(4-CF3)][Sar][hPhe(3-Cl-4-CF3)]P[Ac4c][NMeGly(cPent)][NMeD]-Morpholide; lactam N-11) |  |  |  | 8.03 |  | 9.04 | C (A compound having a KD ratio of 0.1 or more and less than 3 is denoted as C) | C (A compound having a KD ratio of 0.1 or more and less than 3 is denoted as C)
7 | CCO[C@@H]1C[C@H]2C(=O)NC3(CC(C)(C)C3)C(=O)N(C)[C@@H](C3CCCC3)C(=O)N(C)[C@H](C(=O)N(C)C)CC(=O)N(C)[C@@H]([C@@H](C)OC)C(=O)N[C@@H]([C@@H](C)CC)C(=O)N(C)CC(=O)N(C)[C@H]3C/C=C\CCN(C3=O)[C@@H](Cc3ccc(C)cc3)C(=O)N(C)CC(=O)N[C@@H](CCc3ccc(C(F)(F)F)c(Cl)c3)C(=O)N2C1 [PP3209] | 10.00 | A (a compound having 10 or more and less than 20 is denoted as A) | B (a compound having 3 or more and less than 10 is denoted as B) | 8.26 |  |  |  | 
